Structures can show the parent of a compound that is named as a salt.

In this assay the target is T1, KRAS-G12D and SOS1 (Homo sapiens, UniProt P01116, G12D).
T1 construct: purchased
T1 sequence (P01116 1-188 isoform P01116-2 G12D): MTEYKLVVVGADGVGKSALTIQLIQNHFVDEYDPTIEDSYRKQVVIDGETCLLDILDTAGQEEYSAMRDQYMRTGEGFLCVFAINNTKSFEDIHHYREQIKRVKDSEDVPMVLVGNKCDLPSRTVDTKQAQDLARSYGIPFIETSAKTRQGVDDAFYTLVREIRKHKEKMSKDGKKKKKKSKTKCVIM
Nature of the assay: Inhibition of KRAS-G12D/SOS1 binding (Cisbio binding kit, 665/615 ratio), Effect Embodiment A. Particulars: read-out: GTP-KRAS-G12D:SOS1 IC50. The protocol: Similarly, the first dilution point of the compound to be tested was its storage solution, and the solution was 3-fold diluted, with 11+0 points of dilution. Echo was used to transfer 0.2 μL gradient diluted solution of the compounds into a 384-well plate, with 2 duplicated wells for each compound, and the final concentration of DMSO was 1%. The solution was centrifuged for 1 min at 1000 rpm/min.
IC50 of the compounds was fitted by Graphpad Prism 8 nonlinear regression equation: […]
The IC50 (half inhibitory concentration) of the compound was obtained by using the following nonlinear fitting formula: […]
For orientation: IC50 means the concentration needed to halve the response being measured. Turning to `CN1CCC[C@H]1C1(Oc2nc(N3CC4CCC(C3)N4)c3cc(Cl)c(-c4cc(O)cc5ccccc45)c(F)c3n2)CC1` (single isomer, unassigned) [Compound 189, 4-((R or S)-4-((1R,5S)-3,8-diazabicyclo[3.2.1]octan-3-yl)-6-chloro-8-fluoro-2-(1-((S)-1-methylpyrrolidin-2-yl)cyclopropoxy)quinazolin-7-yl)naphthalen-2-ol diformate], the IC50 was found to be 8.32 µM. In the case of `CN(C)C1CN(c2nc(N3C[C@H]4CC[C@@H](C3)N4)c3cc(Cl)c(-c4cc(O)cc5ccccc45)c(F)c3n2)C1` (single isomer, unassigned) [Compound 5b, (S or R)-4-(4-((1R,5S)-3,8 diazabicyclo [3.2.1]octan-3-yl)-6-chloro-2-(3-(dimethylamino)azetidin-1-yl)-8-fluoro-quinazolin-7-yl)naphthalen-2-ol], the IC50 came to 63.3 µM. Under `CNCCN(C)c1nc(N2CC(N(C)C)C2)nc2c(F)c(-c3cc(O)cc4ccccc34)c(Cl)cc12` (single isomer, unassigned) [Compound 16a, (R or S)-4-(6-chloro-2-(3-(dimethylamino)azetidin-1-yl)-8-fluoro-4-(methyl(2-(methylamino)ethyl)amino)quinazolin-7-yl)naphthalen-2-ol] stands 3.49 µM; under `Oc1cc(-c2c(Cl)cc3c(N4CC5CCC(C4)N5)nc(OCCN4CCOCC4)nc3c2F)c2ccccc2c1` (single isomer, unassigned) [Compound 121, 4-((S or R)-4-((1R,5S)-3,8-diazabicyclo[3.2.1]octan-3-yl)-6-chloro-8-fluoro-2-(2-(morpholinylethoxy)quinazolin-7-yl)naphthalen-2-oldihydrochloride], 0.147 µM; under `CN(C)CCCOc1nc(N2CC3CCC(C2)N3)c2cc(Cl)c(-c3cc(O)cc4ccccc34)c(F)c2n1` (single isomer, unassigned) [Compound 40b, (R or S)-4-(4-((1R,5,S)-3,8-diazabicyclo[3.2.1]octan-3-yl)-6-chloro-2-(3-(dimethylamino)propoxy)-8-fluoroquinazolin-7-yl)naphthalen-2-ol], 4.8 µM. Under `CN(C)C1CN(c2nc(N3CC4CCC(C3)N4)c3cc(Cl)c(-c4cc(O)cc5cccc(Cl)c45)c(F)c3n2)C1` (single isomer, unassigned) [Compound 65a, 4-((S or R)-4-((1R,5S)-3,8-diazabicyclo[3.2.1]octan-3-yl)-6-chloro-2-(3-(dimethylamino)azetidin-1-yl)-8-fluoroquinazolin-7-yl)-5-chloronaphthalen-2-ol] stands 44.6 µM; under `C#Cc1c(F)ccc2cc(O)cc(-c3c(Cl)cc4c(N5CC6CCC(C5)N6)nc(OCCCN5C6CCC5COC6)nc4c3F)c12` (single isomer, unassigned) [Compound 255a, (4S or 4R)-4-(2-(3-(3-oxa-8-azabicyclo[3.2.1]octan-8-yl)propoxy)-4-(1R,5S)-3,8-diazabicyclo[3.2.1]octan-3-yl)-6-chloro-8-fluoroquinazolin-7-yl)-5-ethynyl-6-fluoronaphthalen-2-ol diformate], 5.12 µM. As for `CN(C)C1CN(c2nc(N3CC4CCC(C3)N4)c3cc(Cl)c(-c4cc(O)cc5cccc(F)c45)c(F)c3n2)C1` (single isomer, unassigned) [Compound 64a, 4-((S or R)-4-((1R,5S)-3,8-diazabicyclo[3.2.1]octan-3-yl)-6-chloro-2-(3-(dimethylamino)azetidin-1-yl)-8-fluoroquinazolin-7-yl)-5-fluoronaphthalen-2-ol], the IC50 came out at 31.7 µM. The figure for `CN(C)C1CN(c2nc(C3CNC3)c3cc(Cl)c(-c4cc(O)cc5ccccc45)c(F)c3n2)C1` (single isomer, unassigned) [Compound 21a, (S or R)-4-(4-(azetidin-3-yl)-6-chloro-2-(3-(dimethylamino)azetidin-1-yl)-8-fluoroquinazolin-7-yl)naphthalen-2-ol bistrifluoroacetate] is 1.28 µM.

The record behind these values is patent publication US20230365563A1, “QUINAZOLINE COMPOUND AND APPLICATION THEREOF” (SHANGHAI PHARMACEUTICALS HOLDING CO., LTD., priority 2020, published 2023).
